The conditions of series [1]: from patch of Example A; human cadaver epidermis, 37 degree Celsius, seven days.
The nature of series [2]: solubility of THC in aqueous and ionic solutions. It is filed as physicochemical. From the text: Furthermore, THC is insoluble with many solutions, including aqueous and ionically charged solutions. An application of an ionic aqueous solution to a porous material will hinder the diffusion rate of THC through the material and decrease flux of cannabis. Therefore, an appropriate combination of porous THC absorbing material, combined with a solution that is insoluble with THC, can form a suitable rate control means. An example of such a rate controlling membrane includes mixing salt water with a porous rubber membrane that covers the cavity. The thickness of the porous rubber membrane, the concentration of the salt water, and the amount of available cannabis in the cavity are optimized experimentally to create a desired flux of THC to the patient's skin. Evaporation of necessary fluids may be prevented by a protective backing layer.

The conditions of series [3]: prior experimentation; cited from earlier work.

As for `C=C(C)[C@@H]1CCC(C)=C[C@H]1c1c(O)cc(CCCCC)cc1O` [CBD, cannabidiol], the individual cannabinoid flux in series [1] is given as 5.25 micrograms per square centimeter per hour.
For the compound `CCCCCc1cc(O)c2c(c1)OC(C)(C)c1ccc(C)cc1-2` [CBN, cannabinol], in series [1], the individual cannabinoid flux was 4.8 micrograms per square centimeter per hour.
As to `CCCCCc1cc(O)c2c(c1)OC(C)(C)[C@@H]1CCC(C)=C[C@@H]21` [THC, tetrahydrocannabinol], the “solubility with aqueous and ionically charged solutions” value in series [2] is listed as “insoluble”. In series [3], the “diffusion through porous materials such as rubber and plastic” value is on record as “diffuse rapidly”.
Take `CCCCCc1cc(O)c2c(c1)OC(C)(C)C1CC=C(C)CC21` (stereo not drawn) [delta 8 THC]: the individual cannabinoid flux in series [1] is 0.45 micrograms per square centimeter per hour.
On to `CCCCCc1cc(O)c2c(c1)OC(C)(C)C1CCC(C)=CC21` (stereo not drawn) [delta 9 THC], for which the individual cannabinoid flux in series [1] is reported as 4.5 micrograms per square centimeter per hour.

Source of the values: patent US6328992A, “Cannabinoid patch and method for cannabis transdermal delivery” (priority 2000, dated 2001).
